For test [1], the system named is ras-transformed human bronchial epithelial cells (TBE). In words: Selective cytotoxicity microculture assay, ras-transformed bronchial epithelial cells. In kind it is cell-based.
In test [2] the test system is human renal carcinoma cells (A-498). Description: Selective cytotoxicity microculture assay, human renal carcinoma.
Test [3] has as its target T1, 50:50 mixture of recombinant mouse PKCα and mouse PKCβ2.
T1 construct: The enzymes are expressed in Sf9 insect cells from recombinant baculovirus and partially purified on DEAE-cellulose and Sephacryl 200 gel filtration
Description: Protein Kinase C (PKC) screening assay. The conditions noted are these: Inhibition of Protein Kinase C. The class given is biochemical. From the text: The Protein Kinase C (PKC) screening assay utilized in the following experiments is similar to standard PKC assays used by many investigators. Its primary features are that 1) the assay utilizes a 50:50 mixture of recombinant mouse PKCα and mouse PKCβ2; 2) employs histone as phosphate-accepting substrate; and 3) the PKC enzymatic activity is activated with phosphatidylserine, TPA and low concentration of calcium, so that both calcium and TPA are somewhat limiting for the extent of activation. In this manner the assay is sensitive to inhibitors of PKC activation. A more detailed description of the assay is provided in the following paragraphs.
The recombinant PKC formulation is a mixture (equal parts by activity) of mouse PKCα and mouse PKCβ2. The enzymes are expressed in Sf9 insect cells from recombinant baculovirus and partially purified on DEAE-cellulose and Sephacryl 200 gel filtration. Sufficient PKC is added to each reaction to provide approximately 4 pmols phosphate transferred in 30 minute (per total reaction.) The reaction is linear over the time when 4 pmols of phosphate is transferred and the reaction remains linear well beyond this time frame.
The PKC screening assay is performed in 96 well polystyrene U bottom micro titer plates, in a total reaction volume of 50 ul. Solution manipulations are performed during the assay utilize a Rainin, motorized EDP-plus M8 eight-channel micropipettor.
In some cases 50% DMSO:water, water, or methanol is substituted (if essential) for the solvent. At least 25 μl of the highest concentration sample to be assayed is transferred to a well in a 96 well U-bottom polystyrene assay plate. Serial 5-fold or 10-fold dilutions (depending on the dose-range desired) are made using the EDP-plus M8 eight-channel pipettor in dilute mode and mixing by repipetting. Using the 8-channel pipettor, 2 μl of each dilution is transferred to the appropriate wells of the plate(s) to be used for each assay. Duplicate assays are performed for each dose, with each assay, allowing six wells (half the row) for three-dose assays, or 12 wells (the whole row) for six-dose assays. In general, extracts and fractions are assayed at three doses: 400, 40 an 4 ug/ml, while pure compounds are tested at six doses: 400, 80, 16, 3.2, 0.64, 0.128 ([…]).

Test [4] has as its system normal human renal cells (RPTEC). Description: Selective cytotoxicity microculture assay, normal human renal cells. The class given is cell-based.
Setting [5] is: Homo sapiens, Epithelial cell, read-out: GI50.
[6] abbreviates: Homo sapiens, A498, A-498 human renal carcinoma.

Converted amounts (≈) assume the structure as drawn. “And” between values parts separate entries of the source, which are not always exact repeats. Equal entries are not always repeated. Where two headings read alike, the source gives them in different places.

`OCc1ccc(-c2ccc(-c3ccc[se]3)[se]2)[se]1` [compound 675246]: the figures for the concentration for 50% growth inhibition (GI50) in test [1], in test [1] (setting [5]) and in test [2] (setting [6]) were 2 ng/mL (≈ 4.77 nM), 3 ng/mL (≈ 7.16 nM) and 0.003 ng/mL (≈ 0.00716 nM), respectively. In addition, the 50% inhibitory concentration (IC50) – broadly, the midpoint of a concentration-inhibition curve – in test [3] was 3 × 10^0 μg/ml.
In the case of `OCc1ccc(-c2ccc(-c3ccc(CO)[se]3)[se]2)[se]1` [compound 675247], the GI50 – broadly, the concentration at which growth is held to half of that of the control – in test [1] was 20000 ng/mL (≈ 44500 nM); in test [1] (setting [5]), 30000 ng/mL (≈ 66800 nM). Besides, the IC50 in test [3] is 10 µg/mL (≈ 22300 nM).
As to `OCc1ccc(-c2ccc(-c3ccc(CO)s3)[se]2)s1` [compound 675343], the IC50 in test [3] came to 30 µg/mL (≈ 84400 nM).
The same measure, in the same setting: the same measure for `OCc1ccc(-c2ccc(-c3ccc[se]3)s2)[se]1` [compound 676631]: 2 × 10^0 μg/ml.
Consider `OCc1ccc(-c2ccc(-c3ccc(CO)[se]3)s2)[se]1` [compound 676632], for which the concentration for 50% growth inhibition (GI50) was 0.0002 ng/mL (≈ 0.000497 nM) in test [2] (A-498 human renal carcinoma); 0.0003 ng/mL (≈ 0.000746 nM) in test [2] (setting [6]); 2 ng/mL and 0.3 ng/mL in test [4]. In test [3], the IC50 turned out to be 50 µg/mL (≈ 124000 nM).

The values above are taken from patent US20040063662A1, “Selenophene anti-tumor agents” (priority 1996, published 2004).
